Results reported in patent US7211685B2, “Calcium receptor antagonists” (Japan Tobacco Inc., priority 2000, dated 2007).
Where a name gives a salt, the structure may show the parent alone.

Columns and labels:
human calcium receptor = biological target: T1, human calcium receptor (Homo sapiens, UniProt P41180); test: Evaluation of antagonistic action on calcium receptor using reporter gene (luciferase); assay type: cell-based
T1 construct: expressed in transfected cells; host or cells: cell strain derived from rat adrenal
T1 sequence (P41180 20-1078): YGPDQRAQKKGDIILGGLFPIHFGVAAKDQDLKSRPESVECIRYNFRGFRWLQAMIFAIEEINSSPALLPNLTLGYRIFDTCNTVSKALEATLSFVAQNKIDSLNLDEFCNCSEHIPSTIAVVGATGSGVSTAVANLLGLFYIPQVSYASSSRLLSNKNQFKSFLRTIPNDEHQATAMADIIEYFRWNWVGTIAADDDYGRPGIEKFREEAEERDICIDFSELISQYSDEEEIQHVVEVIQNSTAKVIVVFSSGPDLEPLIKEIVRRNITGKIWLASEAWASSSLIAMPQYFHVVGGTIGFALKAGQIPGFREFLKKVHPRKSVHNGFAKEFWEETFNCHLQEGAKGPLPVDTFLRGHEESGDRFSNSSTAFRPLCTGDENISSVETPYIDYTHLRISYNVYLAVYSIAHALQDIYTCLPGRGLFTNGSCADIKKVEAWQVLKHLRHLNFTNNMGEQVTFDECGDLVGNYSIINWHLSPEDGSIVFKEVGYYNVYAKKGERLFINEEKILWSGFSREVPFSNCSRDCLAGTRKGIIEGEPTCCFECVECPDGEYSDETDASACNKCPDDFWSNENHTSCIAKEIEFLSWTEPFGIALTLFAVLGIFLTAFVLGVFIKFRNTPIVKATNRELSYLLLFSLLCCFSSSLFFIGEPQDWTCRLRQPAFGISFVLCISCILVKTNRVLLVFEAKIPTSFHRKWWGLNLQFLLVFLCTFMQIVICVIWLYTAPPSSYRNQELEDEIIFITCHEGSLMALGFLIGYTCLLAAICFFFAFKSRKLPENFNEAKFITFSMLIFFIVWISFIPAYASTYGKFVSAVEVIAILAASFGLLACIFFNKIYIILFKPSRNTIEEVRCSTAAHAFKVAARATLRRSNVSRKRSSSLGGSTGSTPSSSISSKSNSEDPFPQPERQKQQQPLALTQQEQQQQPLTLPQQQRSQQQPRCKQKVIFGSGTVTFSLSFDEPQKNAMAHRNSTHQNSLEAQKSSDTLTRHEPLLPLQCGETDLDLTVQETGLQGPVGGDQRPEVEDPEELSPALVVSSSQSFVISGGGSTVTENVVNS
Description: Evaluation of Antagonistic Action on Calcium Receptor Using Reporter Gene
Luciferase cDNA and human calcium receptor cDNA were transfected into a cell strain derived from rat adrenal and the transformed cells were cultured overnight in a medium (F12 medium containing 0.5% dialyzed horse serum and 0.25% dialyzed bovine fetal serum). The next day, a dimethyl sulfoxide solution containing a test compound at 0.01–100 mM was diluted 100-fold with the medium and added to the test compound group at 10 μl per well. A medium containing 50 mM calcium chloride was added to the control group at 10 μl per well, such that the final calcium concentration of the medium became 5 mM. A medium alone was added to the blank group. After culture for 4 hr, luciferase substrate (PicaGene LT-2.0, TOYO INK) was added and the luciferase activity was measured with a photoluminometer. The inhibitory rate (%) was calculated from the obtained measured values according to the following formula.
Based on the results, the concentration (IC50) showing 50% inhibitory rate was determined.

PTH secretion [1] = test: PTH secretion promoting action, oral administration to male SD rats, serum PTH by rat PTH (1-84) ELISA; assay type: in vivo; details: for serum PTH concentration, 30 min later / serum PTH concentration, 240 min later / serum PTH concentration, 120 min later: male SD rats, oral, mean ± S.E.
Description: (§1) PTH Secretion Promoting Action
(§2) The test compound was orally administered to 6 to 9-week-old male SD rats (Charles River Japan, Inc.) fasted for 20 hr, using a solvent (5% ethanol, 0.5% aqueous methyl cellulose solution) at a dose of 30 mg/5 ml/kg and 100 mg/5 ml/kg. A solvent alone was orally administered to the control group at a dose of 5 ml/kg. The blood was drawn from the tail vein immediately before and 0.5, 1, 2, 4, 6 hr after the administration of the test compound, and sera were obtained. The serum PTH concentration was measured using rat PTH (1-84) ELISA kit (Nohon Medi-Physics). The results of the serum PTH concentration before and 30 min and 4 hr after the administration of the test compound are shown in Table 24, and the results of the serum PTH concentration before and 30 min and 2 hr after the administration of the test compound of the 30 mg/5 ml/kg administration group are shown in Table 25.
In FIG. 1, FIG. 2 and FIG. 3, the time-course changes of the serum PTH concentration at the dose (30 mg/kg) of Example 22, Example 23 and Example 24 are shown.

PTH secretion [2] = test: PTH secretion promoting action, oral administration to female Fisher rats, serum PTH by rat PTH (1-84) ELISA; assay type: in vivo; details: 30 mg/5 ml/kg, mean ± S.E.
Description: as §1
as §2, with “4” for “6”, “6-week-old female Fisher” for “9-week-old male SD”, “30” for “30 mg/5 ml/kg and 100”, “4” for “4, 6”, “26.” for “24, and the results of the serum PTH concentration before and 30 min and 2 hr after the administration of the test compound of the 30 mg/5 ml/kg administration group are shown in Table 25.”

PTH release = details: OVX rat, cited from earlier work
[3] = OVX rat; cited from earlier work
[4] = system: osteoblast and osteoclast; details: cited from earlier work
[5] = 100 mg/kg administration group (lower line)
[6] = Table 25, 30 mg/5 ml/kg administration group

Compound | IC50 (human calcium receptor; Table 24, final calcium 5 mM) [nM] | IC50 (human calcium receptor; Table 25, final calcium 5 mM) [nM] | serum PTH concentration, 30 min later (PTH secretion [1]; [6]) [pg/mL] | serum PTH concentration, 120 min later (PTH secretion [1]; [6]) [pg/mL] | also measured
CC(C)(Cc1ccc2ccccc2c1)NC[C@@H](O)COCc1ccccc1 [Comparative Example 1, reference compound] | 560 |  |  |  | serum PTH concentration, 30 min later (PTH secretion [1]; [5]): 139.0 ± 18.8 pg/mL; serum PTH concentration, 240 min later (PTH secretion [1]; [5]): 78.9 ± 12.3 pg/mL; blood PTH concentration at 30 min relative to that before administration (PTH secretion [1]; 100 mg/kg, 30 min after administration): 1.3 times
COc1ccccc1C(OC[C@H](O)CNC(C)(C)Cc1ccc2ccccc2c1)C1CC1 (stereo partly drawn) [Example 1, (2R)-1-[1,1-Dimethyl-2-(naphthalen-2-yl)ethylamino]-3-[(cyclopropyl)(2-methoxyphenyl)methoxy]propan-2-ol] | 41 |  |  |  | serum PTH concentration, 30 min later (PTH secretion [1]; [5]): 160.0 ± 13.8 pg/mL; serum PTH concentration, 240 min later (PTH secretion [1]; [5]): 58.3 ± 7.3 pg/mL
Cc1ccccc1C(OC[C@H](O)CNC(C)(C)Cc1ccc2ccccc2c1)C1CC1 (stereo partly drawn) [Example 2, (2R)-1-[1,1-Dimethyl-2-(naphthalen-2-yl)ethylamino]-3-[(cyclopropyl) (2-methylphenyl)methoxy]propan-2-ol] | 27 |  |  |  | serum PTH concentration, 30 min later (PTH secretion [1]; [5]): 154.8 ± 17.1 pg/mL; serum PTH concentration, 240 min later (PTH secretion [1]; [5]): 85.8 ± 17.3 pg/mL
COc1ccccc1C(C)OC[C@H](O)CNC(C)(C)Cc1ccc2ccccc2c1 (stereo partly drawn) [Example 5, (2R)-1-[1,1-Dimethyl-2-(naphthalen-2-yl)ethylamino]-3-[1-(2-methoxyphenyl)ethoxy]propan-2-ol hydrochloride] | 70 |  |  |  | 
COc1ccccc1[C@@H](C)OC[C@H](O)CNC(C)(C)Cc1ccc2ccccc2c1 [Example 22, (2R)-1-[1,1-Dimethyl-2-(naphthalen-2-yl)ethylamino]-3-[(1R)-1-(2-methoxyphenyl)ethoxy]propan-2-ol hydrochloride] | 59 |  |  |  | 
CC(C)(Cc1ccc2ccccc2c1)NC[C@@H](O)CO[C@@H](c1ccccc1CO)C1CC1 [Example 58, (2R)-1-[1,1-Dimethyl-2-(naphthalen-2-yl)ethylamino]-3-[(1R)-(cyclopropyl)[2-(hydroxymethyl)phenyl]methoxy]propan-2-ol Hemifumarate] |  |  |  |  | serum PTH concentration, 30 min later (PTH secretion [2]): 644.4 ± 65.2 pg/mL; serum PTH concentration, 240 min later (PTH secretion [2]): 394.1 ± 100.9 pg/mL; serum PTH concentration, before administration (PTH secretion [2]): 179.2 ± 45.6 pg/mL
CC(C)(Cc1ccc2ccccc2c1)NC[C@@H](O)CO[C@H](c1ccccc1CO)C1CC1 [Example 59, (2R)-1-[1,1-Dimethyl-2-(naphthalen-2-yl)ethylamino]-3-[(1S)-(cyclopropyl)[2-(hydroxymethyl)phenyl]methoxy]propan-2-ol Hemifumarate] |  |  |  |  | serum PTH concentration, 30 min later (PTH secretion [2]): 313.4 ± 103.3 pg/mL; serum PTH concentration, 240 min later (PTH secretion [2]): 62.2 ± 10.3 pg/mL; serum PTH concentration, before administration (PTH secretion [2]): 189.8 ± 90.9 pg/mL
COc1ccc(CC(C)(C)NC[C@@H](O)CO[C@@H](c2ccccc2C)C2CC2)cc1C [Example 95] |  | 29 | 199.1 ± 25.8 | 80.4 ± 9.6 | 
Cc1ccc(CC(C)(C)NC[C@@H](O)CO[C@@H](c2ccccc2C)C2CC2)cc1C [Example 111] |  | 24 | 236.3 ± 60.8 | 65.3 ± 6.4 | 
COc1ccc(CC(C)(C)NC[C@@H](O)CO[C@@H](c2ccccc2C)C2CC2)cc1C [Example 127] |  | 133 | 265.3 ± 22.3 | 75.2 ± 7.3 | 
CC(C)(Cc1ccc2ccccc2c1)NC[C@@H](O)COc1cccc(Cl)c1C#N [NPS-2143] |  |  |  |  | PTH secretion promoting action, time course (FIG. 5) (PTH secretion [1]; 30 mg/kg, rat): sustained secretion promoting action; PTH concentration in blood after 4 hr (PTH release; NPS-2143 100 μmol/kg): about 140 pg/ml; PTH concentration in blood at 30 min (PTH release; NPS-2143 100 μmol/kg): about 115 pg/ml; effect on bone (PTH release; oral administration): no bone increase or decrease was found; concentration in blood of NPS-2143 after 24 hr [3]: not more than 10 ng/ml; concentration in blood of NPS-2143 at 8 hr after administration [3]: above 100 ng/ml; direct effect on osteoblast and osteoclast in vitro [4]: no direct effect
rat PTH (1-34): rat parathyroid hormone fragment (1-34) administered to OVX rat (AVSEIQLMHNLGKHLASVERMQWLRKKLQDVHNF; Parathyroid hormone; UniProt P04089 32-65, looked up, fragment) |  |  |  |  | PTH concentration in blood, peak in 30 min (PTH release; rat PTH (1-34) 5 μg/kg): about 175 pg/ml; time to restore original PTH level in blood (PTH release; rat PTH (1-34) 5 μg/kg): 2 h

Further lines, with some results ahead:

IC50 (human calcium receptor; Table 24, final calcium 5 mM) [nM] | IC50 (human calcium receptor; Table 25, final calcium 5 mM) [nM] | Compound | serum PTH concentration, 30 min later (PTH secretion [1]; [6]) [pg/mL] | serum PTH concentration, 120 min later (PTH secretion [1]; [6]) [pg/mL] | also measured
27 |  | Cc1ccccc1[C@H](OC[C@H](O)CNC(C)(C)Cc1ccc2ccccc2c1)C1CC1 [Example 23, (2R)-1-[1,1-Dimethyl-2-(naphthalen-2-yl)ethylamino]-3-[(1R)-(cyclopropyl)(2-methylphenyl)methoxy]propan-2-ol] |  |  | 
22 |  | COc1ccccc1[C@H](OC[C@H](O)CNC(C)(C)Cc1ccc2ccccc2c1)C1CC1 [Example 24, (2R)-1-[1,1-Dimethyl-2-(naphthalen-2-yl)ethylamino]-3-[(1R)-(cyclopropyl)(2-methoxyphenyl)methoxy]propan-2-ol] |  |  | 
45 |  | Cc1ccccc1[C@H](OC[C@H](O)CNC(C)(C)Cc1ccc2ccccc2c1)C1CC1.O=C(O)/C=C/C(=O)O [Example 62] |  |  | serum PTH concentration, 30 min later (PTH secretion [2]): 620.6 ± 34.2 pg/mL; serum PTH concentration, 240 min later (PTH secretion [2]): 100.1 ± 11.7 pg/mL; serum PTH concentration, before administration (PTH secretion [2]): 82.9 ± 14.5 pg/mL
 | 64 | CC(C)(Cc1ccc2ccccc2c1)NC[C@@H](O)COC(c1cccc(C(N)=O)c1)C1CC1 (stereo partly drawn) [Example 80] | 156.6 ± 15.3 | 76.1 ± 12.6 | 
 | 51 | CN(C)c1ccccc1C(OC[C@H](O)CNC(C)(C)Cc1ccc2ccccc2c1)C1CC1 (stereo partly drawn) [Example 82] | 121.9 ± 9.0 | 68.5 ± 11.4 | 
 | 67 | Cc1ccsc1C(OC[C@H](O)CNC(C)(C)Cc1ccc2ccccc2c1)C1CC1 (stereo partly drawn) [Example 100] | 130.1 ± 53.7 | 49.3 ± 4.4 | 
 | 49 | CC(C)(Cc1ccc2ccccc2c1)NC[C@@H](O)COC(c1cccc(C#N)c1)C1CC1 (stereo partly drawn) [Example 105] | 115.4 ± 20.0 | 74.3 ± 12.1 | 
